Experimental data published in US5270457A, “Cardiac steriod glycosides” (University of Manitoba, priority 1992, dated 1993).
Where a name gives a salt, the structure may show the parent alone.

Target: Na/K-ATPase
Assay: 3H-ouabain radioligand binding assay (RBA)
Conditions: for IC50: 3H-ouabain radioligand binding assay (RBA)
Source text: The potency of steroids to displace the labelled cardiac glycoside (i.e. ouabain) in the assay parallel their biological activity, that is their cardiac glycoside-like activity, in their ability to inhibit Na/K-ATPase and elicit characteristic cellular response.

SMILES | IC50 | IC50 (unit printed 'nm') | potency compared with Example 1 and Example 4 (comparison of IC50 values, in words)
CC1OC(OC2C(O)CC(OC3C(O)CC(OC4CCC5(C)C(CCC6C5CCC5(C)C(CN)CCC65O)C4)OC3C)OC2C)CC(O)C1O [Example 3, 14-Hydroxy-3β-(tris-β-D-digitoxosyl)oxy-20-amine-21-nor-5β,14β-pregnane] | 400 nM |  | 
C[C@@H]1O[C@@H](O[C@H]2CC[C@@]3(C)[C@H](CC[C@@H]4[C@@H]3CC[C@]3(C)[C@@H](CN)CC[C@]43O)C2)[C@H](O)[C@H](O)[C@H]1O [Example 1, 14-Hydroxy-3β-(α-L-rhamnopyranosyl)oxy-20-amino-21-nor-5β14β-pregnane hydrochloride] | 60 nM | 60 nM | 
CC1OC(OC2C(O)CC(OC3C(O)CC(OC4CCC5(C)C(CCC6C5CCC5(C)C(C[N+](=O)[O-])CCC65O)C4)OC3C)OC2C)CC(O)C1O [Example 4, 14-Hydroxy-3 β-(tris-β-D-digitoxosyl)oxy-20-nitro-21-nor-5β,14β-pregnane] | 60 nM |  | 
C[C@@H]1O[C@@H](O[C@H]2CC[C@@]3(C)[C@H](CC[C@@H]4[C@@H]3CC[C@]3(C)[C@@H](C[N+](=O)[O-])CC[C@]43O)C2)[C@H](O)[C@H](O)[C@H]1O [Example 2, 14-Hydroxy-3β-(α-L-rhamnopyranosyl)oxy-20-nitro-21-nor-5β,14β-pregnane] | 11 nM | 11 nM | significantly greater than exhibited by the corresponding amino derivative (Example 1) and tridigitoxosyl derivative (Example 4)
